The results in this text go back to patent EP4786466A1, “QUINAZOLINE DERIVATIVE, SALT THEREOF, AND PHARMACEUTICAL COMPOSITION COMPRISING SAME AS ACTIVE INGREDIENT” (Korea Research Institute of Chemical Technology, priority 2023, dated 2025).

Where two headings read alike, the source gives them in different places.

The test system of test [1] is MCF7 breast cancer cell lines. Kind of test: Cell viability analysis, WST-8 assay, MCF7. The conditions noted are these: Homo sapiens, MCF7, 72 h; for viability at 10 µM: read-out: Cell viability (%) WST-8, MCF7, footnote b: concentration 10 µM, 72 hours; for IC50: read-out: IC50 Cell viability (MCF7). On the technique in general: Tetrazolium dyes change colour on reduction, which living cells bring about.
Method: MCF7 breast cancer cell lines and MCF10A normal breast cancer cell lines were treated with serial dilutions of the compounds of the present invention ranging from 1 µM to 15.63 nM for 72 hours. Cell viability was measured by the WST-8 assay (Cyto XTM cell viability assay kit; LPS solution, Daejeon, Korea) according to the manufacturer's instructions.

The subject of test [2] is pENSA. Kind of test: pENSA level by immunofluorescence (described method: in vitro kinase analysis with GST-tag-MASTL and His-tag-ENSA). It counts as cell-based. Conditions: for pENSA (%) Immunofluor ecense (1 µM): compound 1 µM. The method, then:
Two recombinant GST-tag-MASTL (Thermo Fisher Scientific) and His-tag-ENSA (Sino Biological Inc., Beijing, China) were used for in vitro kinase analysis. In vitro kinase analysis was performed as described in the literature [Front Oncol 2020, 10, 571601, 39-202021-10-20doi:10.3389/fonc.2020.571601.].
Phosphorylated ENSA (pENSA), which is activated by phosphorylation by MASTL, can be utilized as a biomarker as it is expected that its activity will be inhibited along with the inhibition of MASTL. In the cell viability assay, MCF7 refers to a breast cancer cell line, and MCF10A refers to a normal breast […] cell line.

For test [3], the target named is T1, Recombinant GST-TAG-MASTL (Homo sapiens, UniProt Q96GX5).
T1 construct: GST; purchased Thermo Fisher Scientific
T1 sequence (Q96GX5 1-879): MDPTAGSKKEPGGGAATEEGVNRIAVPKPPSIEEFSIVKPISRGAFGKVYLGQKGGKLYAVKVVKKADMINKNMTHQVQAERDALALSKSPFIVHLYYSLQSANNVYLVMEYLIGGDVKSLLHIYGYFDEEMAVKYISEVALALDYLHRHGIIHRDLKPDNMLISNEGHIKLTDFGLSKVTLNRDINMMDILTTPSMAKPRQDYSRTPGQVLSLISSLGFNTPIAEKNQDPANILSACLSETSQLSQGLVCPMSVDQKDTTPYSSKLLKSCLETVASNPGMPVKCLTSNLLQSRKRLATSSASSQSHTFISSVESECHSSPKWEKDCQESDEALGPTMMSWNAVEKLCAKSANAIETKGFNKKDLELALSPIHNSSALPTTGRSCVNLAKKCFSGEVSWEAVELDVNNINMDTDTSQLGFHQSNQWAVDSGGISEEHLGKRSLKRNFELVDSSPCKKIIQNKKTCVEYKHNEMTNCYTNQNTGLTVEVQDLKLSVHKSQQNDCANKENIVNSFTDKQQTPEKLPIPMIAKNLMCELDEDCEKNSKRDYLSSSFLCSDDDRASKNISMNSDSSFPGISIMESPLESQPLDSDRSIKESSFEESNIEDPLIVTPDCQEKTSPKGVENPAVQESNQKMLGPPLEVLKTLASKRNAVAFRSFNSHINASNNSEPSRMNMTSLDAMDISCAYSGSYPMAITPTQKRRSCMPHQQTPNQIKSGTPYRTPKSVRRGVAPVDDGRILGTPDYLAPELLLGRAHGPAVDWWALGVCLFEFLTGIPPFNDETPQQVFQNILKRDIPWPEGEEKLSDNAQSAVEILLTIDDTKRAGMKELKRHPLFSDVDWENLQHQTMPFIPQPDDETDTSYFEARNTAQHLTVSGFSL
Kind of test: HTRF-based kinase assay (HTRF KinEASE assay kit). It is filed as biochemical. Conditions: for activity at 1 µM: read-out: MASTL activity (%) HTRF (1 µM). The source says:
Recombinant GST-TAG-MASTL (Thermo Fisher Scientific, MA, USA) was used for HTRF-based kinase assays. The HTRF KinEASE assay kit (CisBio, MA, USA) was used according to the manufacturer's instructions.
For orientation: In TR-FRET formats the signal depends on donor and acceptor labels being close together.

Setting [4] is: read-out: MASTL activity (%) HTRF.
[5] abbreviates: footnote b: concentration 10 µM.
[6] abbreviates: HTRF, read-out: IC50(nM) MASTL activity.
Setting [7] is: footnote b: concentration 10 µM, read-out: MASTL activity (%) HTRF.
Setting [8] is: read-out: Cell viability (%) WST-8, MCF7 (1 µM), compound 1 µM, 72 hours.
[9] abbreviates: read-out: Cell viability (%) WST-8, MCF7 (1 µM).

For the compound `O=S(=O)(c1ccc(-c2ccccc2)cc1)N1CC2CC1CN2c1nc(Nc2cc(C3CC3)[nH]n2)c2ccccc2n1` (centres unmarked) [compound 15aa, 2-(5-([1,1'-biphenyl]-4-ylsulfonyl)-2,5-diazabicyclo[2.2.1]heptan-2-yl)-M-(5-cyclopropyl-1G-pyrazol-3-yl)quinazolin-4-amine], the viability at 1.1 µM in test [1] (read-out: Cell viability (%) WST-8, MCF7, footnote d: concentration 1.1 µM, 72 hours) was 87.5%. For the same compound, the “pENSA (%) Immunofluor ecense” value in test [2] (footnote d: concentration 1.1 µM) is given as 61.2^d %. Further, the activity at 1.1 µM in test [3] (setting [4]) turned out to be 55.5%.

On to `O=S(=O)(Cc1ccccc1)N1CC2CC1CN2c1nc(Nc2cc(C3CC3)[nH]n2)c2ccccc2n1` (centres unmarked) [compound 15l, 2-(5-(benzylsulfonyl)-2,5-diazabicyclo[2.2.1]heptan-2-yl)-M-(5-cyclopropyl-1G-pyrazol-3-yl)quinazolin-4-amine], for which the viability at 10 µM in test [1] is 2.4%. Also, the IC50 came to 2700 nM in test [1]; 3.7 µM in test [2] (unit µM, read-out: IC50 pENSA); 226 nM in test [3] (setting [6]). Further, the “pENSA (%) Immunofluor ecense” value in test [2] (setting [5]) is on record as 1.9^b %. In addition, the activity at 10 µM in test [3] (setting [7]) came to 18.1%.

As for `COc1cc(Nc2nc(Nc3ccc(CC#N)cc3)nc3ccccc23)n[nH]1` [compound 3r, 2-(4-((4-((5-methoxy-1G-pyrazol-3-yl)amino)quinazolin-2-yl)amino)phenyl)acetonitrile], in test [1] (setting [8]), the viability at 1 µM amounted to 98.3%. Also, in test [3], the concentration for half-maximal inhibition (IC50) was 816 nM and the activity at 1 µM amounted to 67.2%.

Turning to `Cc1nn(CC(C)C)c(C)c1Nc1nc(Nc2ccc(CC#N)cc2)nc2ccccc12` [compound 3b, 2-(4-((4-((1-isobutyl-3,5-dimethyl-1G-pyrazol-4-yl)amino)quinazolin-2-yl)amino)phenyl)acetonitrile], the viability at 10 µM in test [1] was 55.5%. Also, the “pENSA (%) Immunofluor ecense” value in test [2] (setting [5]) was 44.3^b %. Further, the activity at 10 µM in test [3] (setting [4]) worked out at 123%.

Turning to `O=S(=O)(C1CC1)N1CC2CC1CN2c1nc(Nc2cc(C3CC3)[nH]n2)c2ccccc2n1` (centres unmarked) [compound 15i, M-(5-cyclopropyl-1G-pyrazol-3-yl)-2-(5-(cyclopropylsulfonyl)-2,5-diazabicyclo[2.2.1]heptan-2-yl)quinazolin-4-amine], the viability at 10 µM in test [1] was 5.2%. For the same compound, the IC50 in test [1] worked out at 2000 nM; in test [2] (unit µM, read-out: IC50 pENSA), 2.1 µM; in test [3] (setting [6]), 310 nM. Further, the “pENSA (%) Immunofluor ecense” value in test [2] (setting [5]) is listed as 0.2^b %. For the same compound, the activity at 10 µM in test [3] (setting [7]) is 15.5%.

With `COc1cccc(S(=O)(=O)N2CC3CC2CN3c2nc(Nc3cc(C4CC4)[nH]n3)c3ccccc3n2)c1` (centres unmarked) [compound 15r, M-(5-cyclopropyl-1G-pyrazol-3-yl)-2-(5-((3-methoxyphenyl)sulfonyl)-2,5-diazabicyclo[2.2.1]heptan-2-yl)quinazolin-4-amine], the viability at 10 µM in test [1] came to 19%. Further, the IC50 in test [1] was found to be 4300 nM; in test [2] (unit µM, read-out: IC50 pENSA) it was 5.5 µM; in test [3] (setting [6]), 492 nM. Besides, in test [2] (setting [5]), the “pENSA (%) Immunofluor ecense” value was 0.2^b %. Moreover, the activity at 10 µM in test [3] (setting [7]) worked out at 22.7%.

With `N#CCc1ccc(Nc2nc(Nc3ccccc3OCc3ccccc3)c3ccccc3n2)cc1` [compound 3t, 2-(4-((4-((2-(benzyloxy)phenyl)amino)quinazolin-2-yl)amino)phenyl)acetonitrile], the viability at 1 µM in test [1] (setting [8]) turned out to be 45.4%. For the same compound, the activity at 1 µM in test [3] (compound 1 µM) came out at 120%.

For `Cc1cccc(S(=O)(=O)N2CC3CC2CN3c2nc(Nc3cc(C4CC4)[nH]n3)c3ccccc3n2)c1` (centres unmarked) [compound 15t, M-(5-cyclopropyl-1G-pyrazol-3-yl)-2-(5-(/ -tolylsulfonyl)-2,5-diazabicyclo[2.2.1]heptan-2-yl)quinazolin-4-amine], the viability at 10 µM in test [1] was found to be 35.5%. The IC50 in test [1] amounted to 7900 nM; in test [2] (unit µM, read-out: IC50 pENSA), 6.2 µM; in test [3] (setting [6]) it was 563 nM. The “pENSA (%) Immunofluor ecense” value in test [2] (setting [5]) is 0^b %. Besides, the activity at 10 µM in test [3] (setting [7]) came to 15.5%.

Consider `N#CCc1ccc(Nc2nc(Nc3cc(Br)[nH]n3)c3ccccc3n2)cc1` [compound 3q, 2-(4-((4-((5-bromo-1G-pyrazol-3-yl)amino)quinazolin-2-yl)amino)phenyl)acetonitrile], for which the viability at 1 µM in test [1] (setting [8]) was determined as 105%. Moreover, in test [3], the IC50 stood at 640 nM and the activity at 1 µM turned out to be 63.1%.

Take `CC(=O)c1ccc(S(=O)(=O)N2CC3CC2CN3c2nc(Nc3cc(C4CC4)[nH]n3)c3ccccc3n2)cc1` (centres unmarked) [compound 15s, 1-(4-((5-(4-((5-cyclopropyl-1G-pyrazol-3-yl)amino)quinazolin-2-yl)-2,5-diazabicyclo[2.2.1]heptan-2-yl)sulfonyl)phenyl)ethan-1-one]: the viability at 10 µM in test [1] was determined as 5.1%. Besides, the IC50 in test [1] stood at 2900 nM; in test [2] (unit µM, read-out: IC50 pENSA) it was 2.2 µM; in test [3] (setting [6]) it was 354 nM. The “pENSA (%) Immunofluor ecense” value in test [2] (setting [5]) is recorded as 0.2^b %. The activity at 10 µM in test [3] (setting [7]) is 19.2%.

Regarding `N#CCc1ccc(Nc2nc(Nc3n[nH]c4ccccc34)c3ccccc3n2)cc1` [compound 3s, 2-(4-((4-((1G-indazol-3-yl)amino)quinazolin-2-yl)amino)phenyl)acetonitrile], the viability at 1 µM in test [1] (setting [9]) turned out to be 100%. For the same compound, the “pENSA (%) Immunofluor ecense (1 µM)” value in test [2] came to 60.6%. Also, in test [3] (HTRF, unit µM, read-out: IC50 MASTL activity), the IC50 turned out to be 4400 nM. Moreover, the activity at 1 µM in test [3] (compound 1 µM) stood at 102%.

In the case of `N#CCc1ccc(Nc2nc(Nc3ccccc3O)c3ccccc3n2)cc1` [compound 3u, 2-(4-((4-((2-hydroxyphenyl)amino)quinazolin-2-yl)amino)phenyl)acetonitrile], the viability at 1 µM in test [1] (setting [8]) was determined as 49.3%. The IC50 in test [2] (read-out: IC50(nM) pENSA) turned out to be 0.678 µM. In addition, the activity at 1 µM in test [3] (compound 1 µM) was 121%.

`O=S(=O)(c1cccs1)N1CC2CC1CN2c1nc(Nc2cc(C3CC3)[nH]n2)c2ccccc2n1` (centres unmarked) [compound 15ab, M-(5-cyclopropyl-1G-pyrazol-3-yl)-2-(5-(thiophen-2-ylsulfonyl)-2,5-diazabicyclo[2.2.1]heptan-2-yl)quinazolin-4-amine]: the viability at 10 µM in test [1] was 3.9%. Besides, the IC50 is 2400 nM in test [1]; 2.5 µM in test [2] (unit µM, read-out: IC50 pENSA); 222 nM in test [3] (setting [6]). In addition, the “pENSA (%) Immunofluor ecense” value in test [2] (setting [5]) is reported as 0.4^b %. For the same compound, in test [3] (setting [7]), the activity at 10 µM is 17.3%.

In the case of `Cc1cc(Nc2nc(Nc3ccc(CC#N)cc3)nc3ccccc23)n[nH]1` [compound 3p, 2-(4-((4-((5-methyl-1G-pyrazol-3-yl)amino)quinazolin-2-yl)amino)phenyl)acetonitrile], the viability at 1 µM in test [1] (setting [9]) was found to be 106%. In test [2], the “pENSA (%) Immunofluor ecense (1 µM)” value turned out to be 27.5%. The IC50 in test [2] (read-out: IC50(nM) pENSA) came to 0.239 µM; in test [3] (setting [6]) it was 330 nM. The activity at 1 µM in test [3] (compound 1 µM) worked out at 53.1%.

Take `O=S(=O)(c1c(F)cccc1F)N1CC2CC1CN2c1nc(Nc2cc(C3CC3)[nH]n2)c2ccccc2n1` (centres unmarked) [compound 15p, M-(5-cyclopropyl-1G-pyrazol-3-yl)-2-(5-((2,6-difluorophenyl)sulfonyl)-2,5-diazabicyclo[2.2.1]heptan-2-yl)quinazolin-4-amine]: in test [1], the viability at 10 µM amounted to 7.4%. The IC50 is 4100 nM in test [1]; 4.4 µM in test [2] (unit µM, read-out: IC50 pENSA); 331 nM in test [3] (setting [6]). For the same compound, in test [2] (setting [5]), the “pENSA (%) Immunofluor ecense” value is reported as 2.6^b %. Further, the activity at 10 µM in test [3] (setting [7]) came out at 180%.

For `N#CCc1ccc(Nc2nc(Nc3cc[nH]n3)c3ccccc3n2)cc1` [compound 3o, 2-(4-((4-((1G-pyrazol-3-yl)amino)quinazolin-2-yl)amino)phenyl)acetonitrile], the viability at 1 µM in test [1] (setting [8]) was 108%. In test [3], the IC50 came out at 2600 nM and the activity at 1 µM came to 102%.

Usually IC50 stands for the concentration needed to halve the response being measured.
